According to US10039729B2, “Use of kukoamine A and kukoamine B” (Tianjin Chase Sun Pharmaceutical Co., Ltd., priority 2010, dated 2018):

What was measured:
[1] = tested on: mice challenged by heat-killed Escherichia coli; experiment: LPS and TNF-α levels in blood of mice challenged by heat-killed E. coli; format: in vivo, Kunming mice; conditions: for LPS level in mice blood / TNF-α level in mice blood: 40 mg/kg 10 min after heat-killed E. coli 1.1×10^10 CFU/Kg, various time points, p<0.05 or p<0.01 vs control
Experimental: 8.1 Methods: Supernatant of heat-killed E. coli was prepared according to 2.3.3 items of embodiment 2; absorbance values of the supernatant were assayed at 600 nm (OD600 value 1.0≈1.0×10^10 CFU/ml); a total of 84 Kunming mice, half male and half female, were divided into three groups randomly: heat-killed E. coli control group, KA (40 mg/kg) plus heat-killed E. coli group and KB (40 mg/kg) plus heat-killed E. coli group; each group has 28 mice; after animals were weighed, heat-killed E. coli control group was injected with heat-killed E. coli(1.1×10^10 CFU/Kg); the other two groups were respectively injected with KA or KB (40 mg/kg) at 10 min after injection of heat-killed E. coli(1.1×10^10 CFU/Kg); the total injection of each animal was 200 μl per 20 g body weight; orbital venous blood of mice was collected at time point of 0, 2, 4, 8, 12, 24, 48 and 72 h after injection; LPS level was assayed by kinetic turbidimetric limulus test, and TNF-α was assayed by ELISA.
28.1 Methods: Kunming mice were randomly divided into two groups, and there were 56 mice in each group; heat-killed E. coli was diluted to make 1.0×10^9 CFU/ml suspension, and KB was dissolved to 6 mg/ml with sterile saline; caudal vein injection was adopted; medium group was injected with heat-killed Escherichia coli (0.2 ml per 20 g body weight) and sterile saline (0.2 ml per 20 g body weight); KB treatment groups were injected with heat-killed E. coli suspension S (0.2 ml per 20 g body weight) and KB (0.2 ml per 20 g body weight). Orbital venous blood of mice in medium group and KB treatment group was collected at time point of 0, 4, 8, 12, 24, 48 and 72 h after injection, the specific methods are: mice were killed by cervical dislocation, and immersed in 75% ethanol for skin degerming; the eye of mouse was removed, and blood was collected into a 1.5 ml EP tube; 10 μl blood were added into 190 μl nonpyrogenic water; solution was kept standing for 5-10 min for neutral sedimentation, and centrifuged at 1000 rpm for 10 min; the supernatant was transferred into a new centrifuge tube and stored at −20° C. for further detection; the rest was keep standing until aggregation and serum precipitation, then centrifuged at 3000 rpm for 10 min; the supernatant was transferred into a new centrifuge tube and stored at −20° C. for further detection;
(1) Detection of LPS levels in plasma: 10 μl plasma sample was dissolved in 190 μl sterile saline and mixed. Detection of LPS levels was performed according to the operating procedure of EDS-99 Bacterial Endotoxin Detecting system. Result was expressed by means of mean±standard deviation.
(2) Detection of serum cytokine levels: Because of the small blood volume of mouse, serum was diluted 2 times for detection. Detection of the TNF-α concentration was performed according to the manufacturer's instructions of ELISA kit. Result was expressed by means of mean±standard deviation.

RAW264.7 cells = experiment: Binding of fluorescently-labeled LPS and CpG DNA with RAW264.7 cells (flow cytometry); format: cell-based, murine; conditions: 30 min; for fluorescence intensity of CpG DNA in RAW264.7 cells / fluorescence intensity of LPS in RAW264.7 cells: 200 μg/ml, p<0.01; for fluorescence intensity of CpG DNA in RAW264.7 cells: 5-FAM CpG DNA 10 μg/ml; for fluorescence intensity of LPS in RAW264.7 cells: FITC-labeled LPS 400 ng/ml
Experimental: 5.1 Methods: RAW264.7 cells were diluted to 1×10^6/ml in DMEM supplemented with 10% (v/v) NCS, added into 24-well cell culture plates, cultured at 37° C. in a 5% CO2 humidified incubator for 4 h, added with KA and KB (0, 200 μg/ml) after cells attachment, and then added with FITC-labeled LPS (final concentration of 400 ng/ml) and 5-FAM CpG DNA (final concentration of 10 μg/ml); at the same time, medium group without any reagent was established; subsequently, RAW264.7 cells were incubated for 30 min, washed thrice in PBS, resuspended with a pipet and transferred into EP tube, and immobilized with 4% paraform for 10 min; then cells were washed thrice in PBS, made into cell suspension, and detected by flow cytometry; the detections of each group were repeated thrice. Mean fluorescence intensity was expressed by means of Mean±standard deviation.
20.1 Methods: RAW264.7 cells was diluted to 1×10^6/ml in DMEM supplemented with 10% (v/v) NCS; 2 ml of the above suspension was added into 24-well cell culture plates and cultured at 37° C. in a 5% CO2 humidified incubator for 4 h; for the purpose of experiment three groups were established: medium group, stimulation group and KB treatment group; no reagent was added into medium group; stimulation group was added with FITC-LPS (200 ng/ml) and 5-FAM-CpG DNA (10 μg/ml); KB treatment group was added with KB (final concentrations of 50, 100 and 200 μM) in the meantime of adding LPS and CpG DNA; cells continued to be cultured for 30 min, washed thrice with PBS, and stored in dark place until the fluorescence intensity of cell membrane surfaces was detected by flow cytometry.

Compound | LPS level in mice blood [1] | TNF-α level in mice blood [1] | fluorescence intensity of CpG DNA in RAW264.7 cells (RAW264.7 cells) | fluorescence intensity of LPS in RAW264.7 cells (RAW264.7 cells) | LPS levels in mice plasma vs heat-killed E. coli control group ([1]; sublethal heat-killed E. coli, KB 6 mg/ml, 0.2 ml per 20 g, 4, 8, 12, 24 and 48 h, p<0.05 or p<0.01) | TNF-α levels in mice serum vs heat-killed E. coli control group ([1]; sublethal heat-killed E. coli, KB 6 mg/ml, 0.2 ml per 20 g, 4, 8, 12 and 24 h, p<0.01) | mean fluorescence intensity (MFI) of cell membrane, 5-FAM-CpG DNA (RAW264.7 cells; KB 50, 100 and 200 μM, 5-FAM-CpG DNA 10 μg/ml) | mean fluorescence intensity (MFI) of cell membrane, FITC-LPS (RAW264.7 cells; KB 50, 100 and 200 μM, FITC-LPS 200 ng/ml)
O=C(CCc1ccc(O)c(O)c1)NCCCNCCCCNCCCNC(=O)CCc1ccc(O)c(O)c1 [KA, Kukoamine A] | significantly decreased | significantly decreased | significantly decrease the fluorescence intensity | significantly decrease the fluorescence intensity |  |  |  | 
NCCCN(CCCCNCCCNC(=O)CCc1ccc(O)c(O)c1)C(=O)CCc1ccc(O)c(O)c1 [KB, Kukoamine B] | significantly decreased | significantly decreased | significantly decrease the fluorescence intensity | significantly decrease the fluorescence intensity | significantly lower | significantly lower | decrease the MFI of cell membrane in a dose-dependent manner | decrease the MFI of cell membrane in a dose-dependent manner
